Reference: patent publication US20020193404A1, “Use of bicyclic heterocycles for the treatment and prevention of arterial thrombotic disease” (priority 2001, published 2002)
pIC50: −log10 of the molar value.

Tests used:
human citrated plasma = experiment: aPTT (activated partial thromboplastin time) prolongation; settings: concentration at which the aPTT time was double that of the control, 37° C.
Description: The inhibiting effect of the two substances on blood clotting was measured by determining the prolongation of aPTT (activated partial thromboplastin time) as follows:
Plasma, from citrated human blood
PTT reagent, Boehringer Mannheim (524298)
Calcium solution (0.025 mol/L), Behring Werke, Marburg (ORH 056/57)
Diethyl barbiturate acetate buffer, Behring Werke, Marburg (ORWH 60/61)
The aPTT was determined using a Biomatic—B 10 coagulometer made by Messrs Desaga (Wiesloch). The test substance was placed in the test tubes prescribed by the manufacturer with 0.1 ml of human citrated plasma and 0.1 ml of PTT reagent. The preparations were incubated for three minutes at 37° C. The clotting reaction was started by the addition of 0.1 ml of calcium solution. The time taken for the plasma to clot was measured by the apparatus as the calcium solution was added. Analogous test preparations to which 0.1 ml of diethyl barbiturate acetate buffer had been added were used as controls. According to the definition of EC200, the substance concentration at which the aPTT time was double that of the control was determined using a dosage-activity curve.

[1] = target: T1, human fibrinogen receptor (glycoprotein IIb/IIIa) (Homo sapiens, UniProt P05106+P08514); experiment: Inhibition of binding of 3H-BIBU 52 to human thrombocytes; settings: 3H-BIBU 52 5 nM, human thrombocytes in plasma, ambient temperature, 20 minutes
T1 construct: endogenous in cells; host or cells: human thrombocytes in platelet-rich plasma from donor blood
Description: The inhibiting effect on the human fibrinogen receptor (glycoprotein IIb/IIIa) was investigated as follows:
Inhibition of Binding of ^3H-BIBU 52 to Human Thrombocytes:
A suspension of human thrombocytes was incubated with ^3H-BIBU 52 [=(3S,5S)-5-[(4′-amidino-4-biphenylyl)oxymethyl]-3-[(carboxy)methyl]-2-pyrrolidinone[3-^3H-4-biphenylyl]], which replaces the ligand ^125I-fibrinogen known from the literature (cf. DE-A-4 214 245), and various concentrations of the substance being tested. The free and bound ligands were separated by centrifugation and quantitatively determined by scintillation counting. The inhibition of the ^3H-BIBU 52 binding by the test substance was determined from the measurements obtained. To do this, donor blood was taken from an anticubital vein and anticoagulated with trisodium citrate (final concentration: 13 mM). The blood was centrifuged for ten minutes at 170× g and the supernatant platelet-rich plasma (PRP) was removed. The remaining blood was sharply centrifuged once more to obtain plasma. The PRP was diluted 1:10 with autologous plasma. […] 100 μl thereof were assayed in order to quantify the free ligand. […] The residual plasma still remaining in the pellet was determined from the ^14C content while the bound ligand was determined from the ^3H measurement. […]

T1 sequence (P08514 32-887 limits assumed): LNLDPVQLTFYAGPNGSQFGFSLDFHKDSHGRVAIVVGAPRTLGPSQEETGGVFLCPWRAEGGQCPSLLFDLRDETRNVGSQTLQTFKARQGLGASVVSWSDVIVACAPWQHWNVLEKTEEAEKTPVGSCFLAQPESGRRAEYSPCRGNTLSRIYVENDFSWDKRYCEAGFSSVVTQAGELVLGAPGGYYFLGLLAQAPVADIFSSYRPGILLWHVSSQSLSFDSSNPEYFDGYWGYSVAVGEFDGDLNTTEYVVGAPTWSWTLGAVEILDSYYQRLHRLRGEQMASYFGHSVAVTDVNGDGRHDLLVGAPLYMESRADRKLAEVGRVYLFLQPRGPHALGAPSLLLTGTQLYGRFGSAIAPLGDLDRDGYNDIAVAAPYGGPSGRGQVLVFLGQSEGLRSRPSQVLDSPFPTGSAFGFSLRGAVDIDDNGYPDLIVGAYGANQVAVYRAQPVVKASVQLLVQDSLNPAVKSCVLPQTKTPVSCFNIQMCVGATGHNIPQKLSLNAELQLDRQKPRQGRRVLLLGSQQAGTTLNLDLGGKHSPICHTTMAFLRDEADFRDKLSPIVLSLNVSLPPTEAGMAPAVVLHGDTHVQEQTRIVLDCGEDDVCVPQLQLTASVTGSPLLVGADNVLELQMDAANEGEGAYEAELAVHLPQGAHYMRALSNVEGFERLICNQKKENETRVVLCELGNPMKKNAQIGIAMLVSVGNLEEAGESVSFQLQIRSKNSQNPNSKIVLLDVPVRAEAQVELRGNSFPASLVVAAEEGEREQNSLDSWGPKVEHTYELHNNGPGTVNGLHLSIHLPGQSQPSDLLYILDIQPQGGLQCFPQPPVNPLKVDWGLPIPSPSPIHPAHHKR
T1 sequence (P08514 891-1039 partner limits assumed): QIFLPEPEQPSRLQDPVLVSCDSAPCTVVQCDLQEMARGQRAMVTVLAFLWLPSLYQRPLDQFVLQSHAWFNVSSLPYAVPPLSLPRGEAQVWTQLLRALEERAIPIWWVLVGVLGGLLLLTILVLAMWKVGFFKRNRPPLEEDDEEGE
T1 sequence (P05106 27-788): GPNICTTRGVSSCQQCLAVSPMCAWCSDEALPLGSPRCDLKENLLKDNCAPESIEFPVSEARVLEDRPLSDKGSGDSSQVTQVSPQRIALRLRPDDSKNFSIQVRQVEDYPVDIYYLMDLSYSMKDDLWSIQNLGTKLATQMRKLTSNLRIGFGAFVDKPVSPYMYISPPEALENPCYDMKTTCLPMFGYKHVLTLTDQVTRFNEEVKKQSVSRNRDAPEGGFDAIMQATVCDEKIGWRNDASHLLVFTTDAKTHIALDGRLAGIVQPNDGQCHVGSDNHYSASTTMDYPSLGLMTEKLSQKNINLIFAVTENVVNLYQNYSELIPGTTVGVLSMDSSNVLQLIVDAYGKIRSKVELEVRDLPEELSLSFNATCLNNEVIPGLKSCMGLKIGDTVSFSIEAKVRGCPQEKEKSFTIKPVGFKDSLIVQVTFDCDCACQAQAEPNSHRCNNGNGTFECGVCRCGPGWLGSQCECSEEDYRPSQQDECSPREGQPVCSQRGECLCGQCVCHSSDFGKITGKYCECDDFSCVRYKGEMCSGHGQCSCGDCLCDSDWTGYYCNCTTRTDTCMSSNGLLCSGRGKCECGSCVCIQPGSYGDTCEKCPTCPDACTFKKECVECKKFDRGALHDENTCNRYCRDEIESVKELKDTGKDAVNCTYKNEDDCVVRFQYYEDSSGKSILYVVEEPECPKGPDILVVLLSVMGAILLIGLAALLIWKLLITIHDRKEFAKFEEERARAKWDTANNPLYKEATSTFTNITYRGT

Row | SMILES | aPTT (EC200) (human citrated plasma) [µmol/L] | pIC50 [1]
1 | Cn1c(COc2ccc(C(=N)N)cc2)nc2cc(N(CC(=O)O)S(=O)(=O)c3cccc4cccnc34)ccc21 [A, 1-methyl-2-[(4-amidinophenyl)-oxymethyl]-5-[N-(hydroxycarbonylmethyl)-quinoline-8-sulphonylamino]-benzimidazole] | 0.013 | 8.22
2 | Cn1c(CNc2ccc(C(=N)N)cc2)nc2cc(N(CC(=O)O)S(=O)(=O)c3cccc4cccnc34)ccc21 [B, 1-methyl-2-[N-(4-amidinophenyl)-aminomethyl]-5-[N-(hydroxycarbonylmethyl)-quinoline-8-sulphonylamino]-benzimidazole] | 0.026 | 7.31
